{"source": "ChEMBL document CHEMBL1201862", "about": "“PubChem BioAssay data set” (2004)", "key": {"[1]": {"biological_target": "T1, Tyrosine-protein phosphatase non-receptor type 7 (Homo sapiens, UniProt P35236)", "T1 sequence (P35236 whole entry)": "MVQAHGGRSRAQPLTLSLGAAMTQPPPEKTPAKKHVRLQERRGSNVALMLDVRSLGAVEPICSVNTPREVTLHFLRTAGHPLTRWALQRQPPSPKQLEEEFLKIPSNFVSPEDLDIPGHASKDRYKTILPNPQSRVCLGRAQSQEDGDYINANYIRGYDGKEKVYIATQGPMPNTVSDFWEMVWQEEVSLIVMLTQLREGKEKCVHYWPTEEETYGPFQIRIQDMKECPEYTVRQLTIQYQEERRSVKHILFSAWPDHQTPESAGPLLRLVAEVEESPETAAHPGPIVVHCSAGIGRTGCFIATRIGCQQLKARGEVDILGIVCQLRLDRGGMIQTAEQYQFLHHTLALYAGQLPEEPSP", "test": "Dose Response confirmation of compounds that inhibit HePTP. [Related pubchem assays (depositor defined):AID1059, AID1661, AID2085]", "format": "functional"}, "[2]": {"biological_target": "Dual specificity protein phosphatase 3 (Homo sapiens, UniProt P51452)", "test": "Dose Response Confirmation of compounds that inhibit VHR1 in Fluorescent Assay. [Related pubchem assays (depositor defined):AID1661, AID1878]", "format": "functional"}, "[3]": {"biological_target": "T2, Low molecular weight phosphotyrosine protein phosphatase (Homo sapiens, UniProt P24666)", "T2 sequence (P24666 whole entry)": "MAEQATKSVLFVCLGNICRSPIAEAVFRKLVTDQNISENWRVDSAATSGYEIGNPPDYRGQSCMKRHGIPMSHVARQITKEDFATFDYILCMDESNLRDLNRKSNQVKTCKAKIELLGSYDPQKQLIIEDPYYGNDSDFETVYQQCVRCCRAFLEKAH", "format": "functional", "settings": "read-out: IC50_Mean"}, "[4]": {"test": "inhibitors of Bluetongue virus cytopathic effect, confirmation, arbovirus, BSR cells (AID 1250);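 further: protection from viral cytopathic effect measured as cell viability by ATP luminescence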", "format": "functional"}, "Caspase-3": {"biological_target": "T3, Caspase-3 (Homo sapiens, UniProt P42574)", "T3 sequence (P42574 whole entry)": "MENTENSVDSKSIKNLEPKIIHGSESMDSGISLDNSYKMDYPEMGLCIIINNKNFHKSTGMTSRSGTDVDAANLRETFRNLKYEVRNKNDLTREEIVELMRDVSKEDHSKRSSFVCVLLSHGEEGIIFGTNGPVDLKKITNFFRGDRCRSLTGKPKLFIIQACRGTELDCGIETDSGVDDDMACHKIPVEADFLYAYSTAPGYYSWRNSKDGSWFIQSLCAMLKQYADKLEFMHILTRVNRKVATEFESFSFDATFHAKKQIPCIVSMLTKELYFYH", "test": "procaspase-3 activators, dose response, biochemical, absorbance (AID 489014)"}, "Caspase-7": {"biological_target": "Caspase-7 (Homo sapiens, UniProt P55210)", "sequence (P55210 24-198 limits assumed)": "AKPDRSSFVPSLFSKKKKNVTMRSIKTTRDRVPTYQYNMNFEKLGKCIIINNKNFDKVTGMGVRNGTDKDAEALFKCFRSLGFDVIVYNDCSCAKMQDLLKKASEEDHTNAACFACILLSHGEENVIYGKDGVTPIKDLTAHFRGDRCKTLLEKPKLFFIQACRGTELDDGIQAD", "sequence (P55210 207-303 limits assumed)": "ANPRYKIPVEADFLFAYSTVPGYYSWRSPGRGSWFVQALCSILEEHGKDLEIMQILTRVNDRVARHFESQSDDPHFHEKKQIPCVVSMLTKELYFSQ", "test": "procaspase-7 activators, dose response, counter-screen for procaspase-3 activator project, biochemical, absorbance (AID 489013)"}, "[5]": {"biological_target": "T4, Voltage-gated N-type calcium channel alpha-1B subunit/Amyloid beta A4 precursor protein-binding family A member 1 (Homo sapiens, UniProt Q00975+Q02410)", "T4 sequence (Q00975 whole entry)": "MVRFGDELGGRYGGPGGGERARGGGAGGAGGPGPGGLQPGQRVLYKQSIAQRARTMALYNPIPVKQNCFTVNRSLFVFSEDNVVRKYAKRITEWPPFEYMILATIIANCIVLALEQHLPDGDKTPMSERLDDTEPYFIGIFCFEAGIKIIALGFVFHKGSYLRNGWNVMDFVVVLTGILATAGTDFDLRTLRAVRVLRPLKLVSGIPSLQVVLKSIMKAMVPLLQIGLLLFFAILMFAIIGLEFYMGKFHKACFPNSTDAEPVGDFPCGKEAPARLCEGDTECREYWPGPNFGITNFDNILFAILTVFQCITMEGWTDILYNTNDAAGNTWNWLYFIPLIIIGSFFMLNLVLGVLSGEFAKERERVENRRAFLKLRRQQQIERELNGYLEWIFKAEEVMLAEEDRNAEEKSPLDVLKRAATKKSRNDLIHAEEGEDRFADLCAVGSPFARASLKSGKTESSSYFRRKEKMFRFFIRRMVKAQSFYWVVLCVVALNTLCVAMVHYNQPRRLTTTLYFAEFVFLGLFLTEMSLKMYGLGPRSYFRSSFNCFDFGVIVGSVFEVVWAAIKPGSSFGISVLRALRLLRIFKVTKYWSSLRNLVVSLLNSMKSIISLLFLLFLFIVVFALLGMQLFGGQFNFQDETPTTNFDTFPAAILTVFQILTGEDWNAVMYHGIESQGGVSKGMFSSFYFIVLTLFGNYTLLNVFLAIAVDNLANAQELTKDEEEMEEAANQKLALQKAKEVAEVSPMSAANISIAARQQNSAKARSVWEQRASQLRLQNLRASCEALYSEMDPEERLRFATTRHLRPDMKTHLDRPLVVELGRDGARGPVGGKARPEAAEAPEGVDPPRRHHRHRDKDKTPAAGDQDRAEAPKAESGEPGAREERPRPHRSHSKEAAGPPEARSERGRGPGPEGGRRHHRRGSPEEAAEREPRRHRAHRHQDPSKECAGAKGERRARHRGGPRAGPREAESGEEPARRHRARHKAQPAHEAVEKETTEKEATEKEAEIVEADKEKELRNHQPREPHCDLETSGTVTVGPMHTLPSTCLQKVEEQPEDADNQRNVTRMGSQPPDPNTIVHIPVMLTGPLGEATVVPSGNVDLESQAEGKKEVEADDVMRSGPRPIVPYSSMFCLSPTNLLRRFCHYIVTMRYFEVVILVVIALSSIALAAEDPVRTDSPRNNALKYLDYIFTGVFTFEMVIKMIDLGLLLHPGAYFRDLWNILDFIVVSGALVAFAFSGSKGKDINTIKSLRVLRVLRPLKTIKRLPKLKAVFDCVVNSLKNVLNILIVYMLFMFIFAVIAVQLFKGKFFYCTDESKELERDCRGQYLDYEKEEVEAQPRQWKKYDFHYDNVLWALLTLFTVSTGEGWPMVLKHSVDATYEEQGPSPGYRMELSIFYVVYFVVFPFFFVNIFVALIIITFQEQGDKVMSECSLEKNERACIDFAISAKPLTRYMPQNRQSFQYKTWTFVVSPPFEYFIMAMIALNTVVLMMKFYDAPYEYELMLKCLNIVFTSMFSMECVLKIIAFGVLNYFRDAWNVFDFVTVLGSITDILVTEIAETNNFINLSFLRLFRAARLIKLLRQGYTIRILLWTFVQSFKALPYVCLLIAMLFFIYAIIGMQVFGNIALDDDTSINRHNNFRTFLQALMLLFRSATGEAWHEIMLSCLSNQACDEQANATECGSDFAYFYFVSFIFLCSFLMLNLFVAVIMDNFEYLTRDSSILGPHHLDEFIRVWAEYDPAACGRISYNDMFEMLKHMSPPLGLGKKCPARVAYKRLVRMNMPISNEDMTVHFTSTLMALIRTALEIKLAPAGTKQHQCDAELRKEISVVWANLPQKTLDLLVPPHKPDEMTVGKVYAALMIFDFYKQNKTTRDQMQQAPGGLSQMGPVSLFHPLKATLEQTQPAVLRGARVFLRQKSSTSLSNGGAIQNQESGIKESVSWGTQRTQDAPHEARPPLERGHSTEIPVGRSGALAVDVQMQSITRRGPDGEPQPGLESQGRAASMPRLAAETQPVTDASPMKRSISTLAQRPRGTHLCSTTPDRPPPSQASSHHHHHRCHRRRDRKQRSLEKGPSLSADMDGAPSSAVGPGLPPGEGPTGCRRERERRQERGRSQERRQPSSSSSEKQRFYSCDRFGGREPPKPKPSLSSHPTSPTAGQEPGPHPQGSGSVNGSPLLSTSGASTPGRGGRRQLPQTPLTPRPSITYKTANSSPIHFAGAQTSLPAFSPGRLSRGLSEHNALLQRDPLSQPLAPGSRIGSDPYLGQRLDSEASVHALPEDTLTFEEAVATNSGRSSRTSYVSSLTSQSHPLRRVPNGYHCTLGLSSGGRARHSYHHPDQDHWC", "T4 sequence (Q02410 whole entry)": "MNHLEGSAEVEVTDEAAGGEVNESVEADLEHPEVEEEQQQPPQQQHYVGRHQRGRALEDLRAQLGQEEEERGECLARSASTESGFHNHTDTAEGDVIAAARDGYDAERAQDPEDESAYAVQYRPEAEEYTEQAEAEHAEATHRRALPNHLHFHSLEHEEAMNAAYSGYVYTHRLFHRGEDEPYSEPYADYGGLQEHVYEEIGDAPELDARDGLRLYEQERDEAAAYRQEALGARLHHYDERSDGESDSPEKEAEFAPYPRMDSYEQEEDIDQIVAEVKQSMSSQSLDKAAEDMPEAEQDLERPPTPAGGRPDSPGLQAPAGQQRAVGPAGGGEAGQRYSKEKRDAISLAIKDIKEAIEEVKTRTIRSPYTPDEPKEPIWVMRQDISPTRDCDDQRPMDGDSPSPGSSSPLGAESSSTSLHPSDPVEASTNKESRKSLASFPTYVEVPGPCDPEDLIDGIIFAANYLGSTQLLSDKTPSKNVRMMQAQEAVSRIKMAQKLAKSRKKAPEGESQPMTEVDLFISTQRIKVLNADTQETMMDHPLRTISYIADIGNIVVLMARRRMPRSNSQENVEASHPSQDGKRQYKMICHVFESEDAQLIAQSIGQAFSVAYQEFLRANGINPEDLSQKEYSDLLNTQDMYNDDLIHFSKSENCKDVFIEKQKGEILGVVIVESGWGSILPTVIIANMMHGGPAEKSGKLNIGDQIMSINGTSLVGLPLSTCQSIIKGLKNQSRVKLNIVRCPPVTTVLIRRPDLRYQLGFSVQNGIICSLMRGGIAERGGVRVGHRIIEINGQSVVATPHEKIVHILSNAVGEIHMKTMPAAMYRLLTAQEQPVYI", "format": "protein assay"}, "Large T antigen": {"biological_target": "Large T antigen (Simian virus 40, UniProt P03070)", "format": "functional, Betapolyomavirus macacae"}, "[6]": {"biological_target": "T4, Voltage-gated N-type calcium channel alpha-1B subunit/Amyloid beta A4 precursor protein-binding family A member 1", "format": "protein assay", "remark": "listed apart in the source"}, "[7]": {"biological_target": "T5, Mannose-6-phosphate isomerase (Homo sapiens, UniProt P34949)", "T5 sequence (P34949 whole entry)": "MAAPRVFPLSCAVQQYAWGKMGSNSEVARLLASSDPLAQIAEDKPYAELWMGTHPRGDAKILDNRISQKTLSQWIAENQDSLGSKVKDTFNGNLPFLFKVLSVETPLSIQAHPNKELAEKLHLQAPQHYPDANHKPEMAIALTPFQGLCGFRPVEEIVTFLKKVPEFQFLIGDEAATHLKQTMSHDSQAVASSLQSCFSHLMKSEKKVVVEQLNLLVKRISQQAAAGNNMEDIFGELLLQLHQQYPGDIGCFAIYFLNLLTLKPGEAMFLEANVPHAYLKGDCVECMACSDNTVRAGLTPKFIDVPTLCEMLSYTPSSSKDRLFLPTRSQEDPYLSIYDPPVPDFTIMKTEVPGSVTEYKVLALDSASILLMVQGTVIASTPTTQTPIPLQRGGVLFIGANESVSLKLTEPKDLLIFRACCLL", "test": "human PMI inhibitors, high substrate, primary screen, biochemical, fluorescence intensity, high mannose 6-phosphate (AID 1220)"}, "[8]": {"biological_target": "Glucose-6-phosphate 1-dehydrogenase (Homo sapiens, UniProt P11413)", "sequence (P11413 whole entry)": "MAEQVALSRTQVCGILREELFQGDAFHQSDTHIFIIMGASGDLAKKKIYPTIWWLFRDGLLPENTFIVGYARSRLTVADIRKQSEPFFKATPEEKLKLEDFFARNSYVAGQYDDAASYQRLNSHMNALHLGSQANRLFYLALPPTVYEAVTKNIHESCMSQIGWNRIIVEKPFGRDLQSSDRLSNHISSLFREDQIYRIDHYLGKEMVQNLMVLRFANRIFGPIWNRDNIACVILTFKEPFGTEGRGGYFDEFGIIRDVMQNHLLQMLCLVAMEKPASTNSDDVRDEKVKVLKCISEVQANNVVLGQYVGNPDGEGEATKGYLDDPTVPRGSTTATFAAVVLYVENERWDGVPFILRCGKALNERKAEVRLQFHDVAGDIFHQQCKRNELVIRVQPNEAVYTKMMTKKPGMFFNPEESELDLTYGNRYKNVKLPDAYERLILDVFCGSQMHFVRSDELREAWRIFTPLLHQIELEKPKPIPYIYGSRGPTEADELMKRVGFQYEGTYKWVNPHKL", "test": "human G6PD enzyme inhibitors, dose response, selectivity assay for P. falciparum G6PD inhibitor project, biochemical, fluorescence (AID 504792)", "format": "functional"}, "[9]": {"biological_target": "Phosphoethanolamine/phosphocholine phosphatase (Homo sapiens, UniProt Q8TCT1)", "test": "SAR assay for compounds that inhibit PHOSPHO1. [Related pubchem assays (depositor defined):AID1545, AID1565, AID1574]"}, "[10]": {"biological_target": "Eukaryotic translation initiation factor 4E (Mus musculus, UniProt P63073)", "test": "eIF4E–eIF4G protein interaction inhibitors, dose response, biochemical, TR-FRET (AID 855);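 further: potency for disrupting eIF4E binding to eIF4GI seen as loss of FRET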", "format": "functional"}, "[11]": {"biological_target": "T4, Voltage-gated N-type calcium channel alpha-1B subunit/Amyloid beta A4 precursor protein-binding family A member 1", "test": "disruptors of Mint-PDZ/N-type channel peptide interaction – biochemical, HTRF, set 2, SAR follow-up (AID 434980)", "format": "functional"}, "[12]": {"biological_target": "T4, Voltage-gated N-type calcium channel alpha-1B subunit/Amyloid beta A4 precursor protein-binding family A member 1", "test": "disruptors of Mint-PDZ/N-type channel peptide interaction – biochemical, HTRF, SAR follow-up (AID 2489)", "format": "functional"}, "Staphylococcus aureus": {"tested_on": "Staphylococcus aureus", "test": "Inhibitors of Bacterial Quorum Sensing Structure Activity Relationship (SAR) Analysis: Dose Response Assay. [Related pubchem assays: 700, 527 ]", "format": "functional, organism-based"}, "[13]": {"biological_target": "Melanin-concentrating hormone receptor 1 (Homo sapiens, UniProt Q99705)", "test": "Late-stage fluorescence-based counterscreen for antagonists of the G-protein coupled receptor 7 (GPR7): cell-based dose response assay to identify antagonists of the melanin-concentrating hormone receptor 1 (MCHR1). [Related pubchem assays (depositor defined):AID1861, AID1880, AID1952, AID2148, AID2251, AID2257, AID485339]", "format": "functional"}, "SUMO-activating enzyme [14]": {"biological_target": "T6, SUMO-activating enzyme (Homo sapiens, UniProt Q9UBT2)", "T6 sequence (Q9UBE0 whole entry)": "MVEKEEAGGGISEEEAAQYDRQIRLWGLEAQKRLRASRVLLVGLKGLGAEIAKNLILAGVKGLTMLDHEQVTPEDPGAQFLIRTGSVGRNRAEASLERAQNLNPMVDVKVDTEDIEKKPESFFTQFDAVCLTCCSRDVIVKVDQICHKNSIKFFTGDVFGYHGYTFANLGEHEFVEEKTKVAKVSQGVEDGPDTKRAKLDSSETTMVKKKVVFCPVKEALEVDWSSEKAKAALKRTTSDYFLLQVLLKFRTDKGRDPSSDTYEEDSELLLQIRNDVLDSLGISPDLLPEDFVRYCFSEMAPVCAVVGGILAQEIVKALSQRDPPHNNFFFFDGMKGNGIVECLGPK", "T6 sequence (Q9UBT2 whole entry)": "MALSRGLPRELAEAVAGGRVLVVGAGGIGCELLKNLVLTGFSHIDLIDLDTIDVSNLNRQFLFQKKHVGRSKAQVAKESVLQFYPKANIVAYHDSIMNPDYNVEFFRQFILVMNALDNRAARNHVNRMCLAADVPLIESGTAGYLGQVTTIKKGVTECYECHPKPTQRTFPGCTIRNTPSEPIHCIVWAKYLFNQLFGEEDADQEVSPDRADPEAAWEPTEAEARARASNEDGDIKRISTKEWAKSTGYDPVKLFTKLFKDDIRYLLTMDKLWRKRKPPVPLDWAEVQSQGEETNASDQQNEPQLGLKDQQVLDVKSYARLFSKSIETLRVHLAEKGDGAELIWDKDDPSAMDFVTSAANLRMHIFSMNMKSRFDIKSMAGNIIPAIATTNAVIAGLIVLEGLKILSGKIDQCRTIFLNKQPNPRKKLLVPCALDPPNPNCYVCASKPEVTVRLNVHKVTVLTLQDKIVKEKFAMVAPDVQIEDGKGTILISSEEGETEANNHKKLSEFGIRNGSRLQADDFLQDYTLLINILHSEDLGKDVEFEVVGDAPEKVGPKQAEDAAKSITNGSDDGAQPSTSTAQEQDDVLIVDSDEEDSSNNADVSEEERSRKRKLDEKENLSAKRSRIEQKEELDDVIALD", "test": "SUMOylation inhibitor hit validation, confirmation, SUMOylation inhibitor project, biochemical, AlphaScreen (AID 2018)", "format": "functional"}, "SUMO-activating enzyme [15]": {"biological_target": "T6, SUMO-activating enzyme", "test": "inhibitors of in vitro SUMOylation cascade, primary screen, biochemical, HTRF, uHTS (AID 2006)", "format": "protein-complex assay"}, "[16]": {"biological_target": "Protein-tyrosine kinase 2-beta (Homo sapiens, UniProt Q14289)"}}, "note": "Calls of active or inactive are those of the source.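 Wherever IC50 Mean is given: Dose-response confirmation assay measuring inhibition of LMPTP enzyme activity by fluorescence intensity read-out.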"}
{"smiles": "O=C1c2ccccc2C(Nc2cccnc2)N1Cc1ccc2c(c1)OCO2", "note": "(stereo unspecified)", "values": [{"measurement": "IC50", "setting": "cells", "value": "21.6 µM (active)"}]}
{"smiles": "O=C(Nc1ccncc1)c1cc(-c2ccccn2)nc2ccc(Br)cc12", "values": [{"measurement": "IC50", "setting": "[1]", "value": "1.52 µM (active)"}, {"measurement": "IC50", "setting": "[2]", "value": "9.44 µM (active)"}, {"measurement": "IC50", "setting": "[3]", "value": "26.3 µM (inactive)"}]}
{"smiles": "COc1ccc2oc3cc(C)[n+]([O-])c(-c4ccc(C)cc4)c3c2c1", "values": [{"measurement": "IC50", "setting": "[4]", "value": "23 µM (active)"}]}
{"smiles": "CC1(C)Cc2c(c(N3CCCC3)nc3sc(C(=O)Nc4ccccc4)c(N)c23)CO1", "values": [{"measurement": "EC50", "setting": "Caspase-3", "value": "> 85.3 µM (inactive)"}, {"measurement": "EC50", "setting": "Caspase-7", "value": "> 85.3 µM (inactive)"}]}
{"smiles": "CNc1nc(-c2ccccc2)[n+](-c2ccc(C)cc2)s1", "values": [{"measurement": "IC50", "setting": "[5]", "value": "1.4 µM (active)"}, {"measurement": "IC50", "setting": "Large T antigen", "value": "39 µM (active)"}, {"measurement": "IC50", "setting": "[6]", "value": "2.48 µM (active)"}, {"measurement": "IC50", "setting": "[7]", "value": "6.89 µM (active)"}, {"measurement": "IC50", "setting": "[8]", "value": "10.5 µM (active)"}, {"measurement": "IC50", "setting": "[9]", "value": "4.47 µM (inactive)"}, {"measurement": "IC50", "setting": "[10]", "value": "1.49 µM (active)"}, {"measurement": "IC50", "setting": "[11]", "value": "278 nM (active)"}, {"measurement": "IC50", "setting": "[12]", "value": "< 110 nM (active)"}]}
{"smiles": "O=C(Nc1ccc2c(c1)OCO2)C(c1ccccc1)N1CCC(Cc2ccccc2)CC1", "note": "(stereo unspecified)", "values": [{"measurement": "IC50", "setting": "Staphylococcus aureus", "value": "802 nM (active)"}]}
{"smiles": "COc1ccc(Oc2c(Cl)cnn(-c3ccc(C(C)C)cc3)c2=O)cc1", "values": [{"measurement": "IC50", "setting": "[13]", "value": "3.1 µM (active)"}]}
{"smiles": "O=C(Cn1c2ccccc2c(=O)c2ccccc21)N/N=C/c1cc([N+](=O)[O-])ccc1N1CCCCCC1", "values": [{"measurement": "IC50", "setting": "SUMO-activating enzyme [14]", "value": "6.12 µM (active)"}, {"measurement": "IC50", "setting": "SUMO-activating enzyme [15]", "value": "24.9 µM (active)"}, {"measurement": "IC50", "setting": "[16]", "value": "1.94 µM (active)"}]}
